Values of other authors as cited in US10450322B2, “Low molecular weight derivatives of carboxamide halogenated porphyrins, namely chlorins and bacteriochlorins, and their applications thereof” (LUZITIN, S.A., priority 2015, dated 2019).

Conditions: at physiological pH; cited from earlier work

Compound: Oc1cccc(-c2c3nc(c(-c4cccc(O)c4)c4ccc([nH]4)c(-c4cccc(O)c4)c4nc(c(-c5cccc(O)c5)c5ccc2[nH]5)CC4)C=C3)c1 [temoporfin, 5,10,15,20-tetra (m-hydroxyphenyl)chlorin]
- log POW: 5.5
